According to patent publication US10414811B2, “Protease-resistant lipidated GLP-1 analogs” (MEDIMMUNE LIMITED, priority 2015, dated 2019):
Where two headings read alike, the source gives them in different places. Numbered stars: 1 amine (or outer) side, 2 acyl side, 3 side chain; on linkers, the order of the positions; unused ones are H or OH. Square brackets hold non-standard residues; d marks the D form. Side chains are listed from the residue outwards. Peptide text beside a SMILES is read from it. * marks the point of attachment. γGlu = O=C(O)[C@H](CCC(=O)[*:2])N[*:1]; αMeF = C[C@](N)(Cc1ccccc1)C(=O)O; αMeK = C[C@](N)(CCCCN)C(=O)O; Lauroyl = CCCCCCCCCCCC(=O)*; αMeS = C[C@](N)(CO)C(=O)O; AEEA = NCCOCCOCC(=O)O; Aib = CC(C)(N)C(=O)O

Columns and labels:
Neprilysin = molecular target: T1, Neprilysin (Homo sapiens, UniProt P08473); experiment: Proteolytic resistance to neprilysin (% remaining peptide, RP-HPLC AUC); type: in vitro ADME; conditions: 37° C., pH 8.3
T1 construct: purchased R&D Systems 1182-ZNC-010

pepsin = molecular target: T2, pepsin (Sus scrofa, UniProt P00791); experiment: Proteolytic resistance to pepsin (% remaining intact peptide, RP-HPLC AUC); type: in vitro ADME; conditions: pig, porcine pepsin, 37° C., pH 2.0, read-out: Percentage remaining intact peptide (AUC by RP-HPLC) upon incubation with pepsin
T2 construct: purchased Sigma P7012
Description: Lyophilized porcine […] pepsin (Sigma: P7012) was reconstituted to afford a solution of 200 μg/mL (˜500 units/mL) in assay buffer (0.1 M HCl, pH 2.0) to give the enzyme stock solution. […] Ratio enzyme (units):peptide (μmoles)˜1:6. […] Ratio enzyme (units):peptide (μmoles)˜2:1.
Lyophilized porcine […] pepsin (Sigma: P7012) was reconstituted to 200 μg/mL (˜500 units/mL) in assay buffer (1.0 M HCl, pH 2.0) to give the enzyme stock solution.

trypsin = molecular target: T3, trypsin (Sus scrofa, UniProt P00761); experiment: Proteolytic resistance to trypsin (% remaining intact peptide, RP-HPLC AUC); type: in vitro ADME; conditions: pig, porcine pancreatic trypsin, 37° C., pH 7.8, read-out: Percentage remaining intact peptide (AUC by RP-HPLC) upon incubation with trypsin
T3 construct: purchased Sigma T7409
Excerpt: Ratio enzyme (units):peptide (μmoles)˜1:11. […] Ratio enzyme (units):peptide (μmoles)˜1.2:1.

[1] = Proteolytic resistance to fasted-state simulated intestinal fluid (FASSIF/Pancreatin); type: in vitro ADME; conditions: 37° C., read-out: Percentage remaining intact peptide (AUC by RP-HPLC) upon incubation with fasted-state simulated intestinal fluid (FASSIF/P)
Description: A fresh suspension of FASSIF/P (Fasted-State Simulated Intestinal Fluid+USP Pancreatin®) was prepared according to that described by Galia, Nicolaides, Hörter, Löbenberg, Reppas and Dressman: Pharm. Res. 15 (1998) 698-705. The resulting preparation is proteolytically equivalent to ˜375 units/mL (375 kU/L) and was used immediately without storage. Peptides for evaluation (1.0 mg, ˜250 nmoles) were initially dissolved in pre-warmed FASSIF without Pancreatin® (200 μL) to which was added pre-warmed fresh FASSIF/Pancreatin® (100 μL) to initiate potential digestion. Following momentary vortexing of the Eppendorf reaction tube the mixture was incubated at 37° C. in a thermostatic waterbath for the duration of the experiment. 25 μL aliquots of the co-incubated peptide-enzyme mixture were periodically withdrawn (t=0, 5 m, 10 m, 15 m, 30 m, 1 h, 2 h) and quenched immediately by addition to a solution of 10% TFA in 1:1 water/acetonitrile (75 μL) to arrest proteolytic activity.

[2] = molecular target: T4, human GLP-1 receptor (GLP-1R) (Homo sapiens, UniProt P43220); experiment: cAMP assay, human GLP-1R cells; type: cell-based; conditions: bis-lipidated peptides
T4 construct: expressed in transfected cells
In short: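 Peptide-stimulated cAMP measured by two-step HTRF after a 30 min room-temperature incubation with receptor-expressing cells (hGLP-1R, hGIPR at 1×10^5 cells/ml; hGCGR at 2×10^5 cells/ml). Duplicate dilutions; EC50 from 4-parameter logistic fit of % Delta F.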

GLP-1R (INS1e assay) = molecular target: T5, GLP-1R (INS1e assay) (Rattus norvegicus, UniProt P32301); experiment: INS1e assay, cAMP activity at GLP-1R; type: cell-based; conditions: bis-lipidated peptides
T5 construct: endogenous in cells; host or cells: INS-1E cells
T5 sequence (P32301 22-463): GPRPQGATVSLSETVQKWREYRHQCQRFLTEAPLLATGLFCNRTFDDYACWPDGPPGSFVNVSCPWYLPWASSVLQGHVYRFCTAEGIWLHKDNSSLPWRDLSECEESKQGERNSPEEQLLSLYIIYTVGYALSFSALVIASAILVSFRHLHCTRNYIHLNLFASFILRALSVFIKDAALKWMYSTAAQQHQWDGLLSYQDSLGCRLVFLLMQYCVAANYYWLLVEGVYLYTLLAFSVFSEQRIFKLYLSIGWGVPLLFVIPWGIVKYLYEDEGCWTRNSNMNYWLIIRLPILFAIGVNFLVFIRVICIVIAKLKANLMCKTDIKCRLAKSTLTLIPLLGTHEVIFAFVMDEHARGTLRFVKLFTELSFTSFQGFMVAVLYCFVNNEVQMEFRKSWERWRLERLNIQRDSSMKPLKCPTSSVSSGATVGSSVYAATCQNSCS
In short: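 cAMP was quantified by two-step HTRF, using anti-cAMP cryptate donor and cAMP-d2 acceptor, each diluted 1/20 in conjugate and lysis buffer. EC50 values of the synthetic peptides were derived from the cAMP readout.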

T1 sequence (P08473 whole entry): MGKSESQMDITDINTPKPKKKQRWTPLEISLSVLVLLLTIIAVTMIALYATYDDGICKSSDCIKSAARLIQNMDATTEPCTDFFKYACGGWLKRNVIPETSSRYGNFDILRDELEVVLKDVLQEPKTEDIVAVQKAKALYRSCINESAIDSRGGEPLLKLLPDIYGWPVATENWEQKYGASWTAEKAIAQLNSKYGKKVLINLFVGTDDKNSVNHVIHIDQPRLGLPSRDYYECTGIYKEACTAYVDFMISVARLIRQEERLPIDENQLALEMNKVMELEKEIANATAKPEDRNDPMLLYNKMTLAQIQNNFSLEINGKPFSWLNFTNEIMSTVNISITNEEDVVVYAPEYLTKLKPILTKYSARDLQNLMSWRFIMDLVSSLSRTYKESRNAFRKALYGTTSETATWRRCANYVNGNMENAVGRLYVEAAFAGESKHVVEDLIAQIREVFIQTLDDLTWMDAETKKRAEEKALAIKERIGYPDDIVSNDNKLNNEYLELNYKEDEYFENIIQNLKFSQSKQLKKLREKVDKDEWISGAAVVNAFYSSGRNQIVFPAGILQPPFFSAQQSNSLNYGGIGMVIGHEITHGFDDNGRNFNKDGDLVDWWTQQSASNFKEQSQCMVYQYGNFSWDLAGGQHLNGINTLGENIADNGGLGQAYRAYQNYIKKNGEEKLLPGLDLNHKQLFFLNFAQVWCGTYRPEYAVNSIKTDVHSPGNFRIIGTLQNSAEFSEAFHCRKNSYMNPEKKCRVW
T2 sequence (P00791 60-385): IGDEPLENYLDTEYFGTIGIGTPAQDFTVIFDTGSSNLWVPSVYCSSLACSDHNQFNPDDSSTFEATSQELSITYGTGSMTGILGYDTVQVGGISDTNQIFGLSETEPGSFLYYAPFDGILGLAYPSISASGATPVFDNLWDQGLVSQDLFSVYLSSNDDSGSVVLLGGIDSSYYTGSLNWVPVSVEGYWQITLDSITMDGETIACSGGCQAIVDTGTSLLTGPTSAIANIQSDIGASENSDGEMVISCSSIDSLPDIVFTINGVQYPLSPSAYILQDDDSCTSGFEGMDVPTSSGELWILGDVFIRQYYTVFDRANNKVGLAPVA
T3 sequence (P00761 9-231): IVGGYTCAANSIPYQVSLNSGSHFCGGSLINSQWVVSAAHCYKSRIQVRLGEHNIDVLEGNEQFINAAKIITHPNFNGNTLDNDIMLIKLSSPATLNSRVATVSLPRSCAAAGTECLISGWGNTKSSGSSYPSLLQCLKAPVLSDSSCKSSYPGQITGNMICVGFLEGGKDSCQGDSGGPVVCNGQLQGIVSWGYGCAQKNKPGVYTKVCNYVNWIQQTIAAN
T4 sequence (P43220 24-463): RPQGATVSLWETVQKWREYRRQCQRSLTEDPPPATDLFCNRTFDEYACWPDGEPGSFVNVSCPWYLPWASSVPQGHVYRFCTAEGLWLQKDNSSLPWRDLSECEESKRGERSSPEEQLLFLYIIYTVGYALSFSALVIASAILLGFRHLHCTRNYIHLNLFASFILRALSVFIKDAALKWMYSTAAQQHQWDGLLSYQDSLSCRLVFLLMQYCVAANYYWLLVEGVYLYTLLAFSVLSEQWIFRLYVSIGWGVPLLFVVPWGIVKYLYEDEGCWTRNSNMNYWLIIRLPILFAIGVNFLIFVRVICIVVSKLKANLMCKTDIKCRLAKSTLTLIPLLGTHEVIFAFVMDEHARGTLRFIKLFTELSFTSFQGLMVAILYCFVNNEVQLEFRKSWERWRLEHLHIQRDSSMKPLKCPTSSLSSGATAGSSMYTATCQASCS

For CCCCCCCCCCCC(=O)N[C@@H](CCC(=O)NCCOCCOCC(=O)NCCOCCOCC(=O)NCCCC[C@H](NC(=O)[C@H](C)NC(=O)[C@@H](NC(=O)[C@H](Cc1ccccc1)NC(=O)[C@H](CCC(=O)O)NC(=O)[C@](C)(CCCCN)NC(=O)[C@H](C)NC(=O)[C@H](C)NC(=O)[C@H](CCC(=O)O)NC(=O)CNC(=O)[C@H](CCC(=O)O)NC(=O)[C@H](CC(C)C)NC(=O)[C@H](CCCCNC(=O)COCCOCCNC(=O)COCCOCCNC(=O)CC[C@H](NC(=O)CCCCCCCCCCC)C(=O)O)NC(=O)[C@H](CO)NC(=O)[C@](C)(CO)NC(=O)[C@@H](NC(=O)[C@H](CC(=O)O)NC(=O)[C@H](CO)NC(=O)[C@@H](NC(=O)[C@](C)(Cc1ccccc1)NC(=O)[C@H](CO)NC(=O)CNC(=O)[C@H](CCC(=O)O)NC(=O)C(C)(C)NC(=O)[C@@H](N)Cc1c[nH]cn1)[C@@H](C)O)C(C)C)[C@@H](C)CC)C(=O)N[C@H](C(=O)N[C@H](C(=O)N[C@@H](CCC(=O)O)C(=O)NCC(=O)NCC(N)=O)C(C)C)C(C)C)C(=O)O [compound 263] (H-H[Aib]EGS[αMeF]TSDV[αMeS]SK([AEEA-AEEA-γGlu-Lauroyl])LEGEAA[αMeK]EFIAK([AEEA-AEEA-γGlu-Lauroyl])VVEGG-NH2), which remaining at 0.5 h (Neprilysin; recombinant neprilysin, t = 30 min) is on record?
Its remaining at 0.5 h is 98.3%.

And the remaining at 1 h (Neprilysin; recombinant neprilysin, t = 1 hr)?
Its remaining at 1 h is 99.5%.

What about the remaining at 2 h (Neprilysin; recombinant neprilysin, t = 2 hr) of the same compound?
The remaining at 2 h was 97.7%.

And the remaining at 4 h (Neprilysin; recombinant neprilysin, t = 4 hr)?
Its remaining at 4 h is 92.3%.

What about the remaining at 8 h (Neprilysin; recombinant neprilysin, t = 8 hr) of the same compound?
The remaining at 8 h was 91.2%.

And the remaining at 24 h (Neprilysin; recombinant neprilysin, t = 24 hr, read-out: Percentage remaining peptide (AUC at specified time-point by RP-HPLC) upon incubation with neprilysin, t = 24 hr)?
Its remaining at 24 h is 91.9%.

And the “Percentage remaining peptide (AUC at specified time-point by RP-HPLC) upon incubation with neprilysin, t = 0” value (Neprilysin; t = 0)?
Its value is 100%.

And the remaining at 0.5 h (pepsin; t = 30 min)?
The remaining at 0.5 h was 57.7%.

What about the remaining at 1 h (pepsin; t = 1 hr) of the same compound?
The remaining at 1 h was 36%.

What about the remaining at 2 h (pepsin; t = 2 hr) of the same compound?
Its remaining at 2 h is 14.3%.

What about the remaining at 4 h (pepsin; t = 4 hr) of the same compound?
The remaining at 4 h was 5.1%.

What about the remaining at 8 h (pepsin; t = 8 hr) of the same compound?
Its remaining at 8 h is 1.1%.

And the remaining at 24 h (pepsin; t = 24 hr)?
Its remaining at 24 h is 0%.

What about the remaining at 0.5 h (trypsin; t = 30 min) of the same compound?
The remaining at 0.5 h was 98.9%.

And the remaining at 1 h (trypsin; t = 1 hr)?
The remaining at 1 h was 97.2%.

And the remaining at 2 h (trypsin; t = 2 hr)?
The remaining at 2 h was 94.8%.

What about the remaining at 4 h (trypsin; t = 4 hr) of the same compound?
The remaining at 4 h was 89.8%.

What about the remaining at 8 h (trypsin; t = 8 hr) of the same compound?
Its remaining at 8 h is 85%.

And the remaining at 5 min, […] ([1]; t = 5 m)?
Its remaining at 5 min, […] is 93.1%.

What about the remaining at 1 h, […] ([1]; t = 1 h) of the same compound?
The remaining at 1 h, […] was 35.1%.

And the EC50 ([2]; mean of n1 and n2, read-out: Primary assay EC50 Mean pM GLP-1R)?
Its EC50 is 1.2 pM.

What about the EC50 ([2]; replicate n2, read-out: Primary assay EC50 GLP-1R n2) of the same compound?
Its EC50 is 1.45 pM.

And the EC50 (GLP-1R (INS1e assay); mean of n1 and n2, read-out: INS1e assay EC50 Mean pM GLP-1R)?
The EC50 was 132 pM.

What about the EC50 (GLP-1R (INS1e assay); replicate n1, read-out: INS1e assay EC50 GLP-1R n1) of the same compound?
Its EC50 is 120 pM.

What about the EC50 (GLP-1R (INS1e assay); replicate n2, read-out: INS1e assay EC50 GLP-1R n2) of the same compound?
The EC50 was 144 pM.
